In patent publication US8334313B2, “Ureido substituted benzoic acid compounds and their use for nonsense suppression and the treatment of disease” (PTC Therapeutics, Inc., priority 2002, dated 2012):

The compounds below were run on luciferase reporter construct containing a UGA premature termination codon (assay: cell-based luciferase reporter assay (nonsense suppression / readthrough)). Conditions: ranking combining potency and efficacy of protein synthesis; UGA luciferase reporter stably transfected in 293T Human Embryonic Kidney cells.
Set-up: key: *****: both extremely high potency and extremely high efficacy of protein synthesis; ****: extremely high potency of protein synthesis and very high efficacy; ****: very high potency of protein synthesis and extremely high efficacy; ***: both very high potency and very high efficacy of protein synthesis; **: very high potency of protein synthesis and significant efficacy; **: significant potency of protein synthesis and very high efficacy; *: significant potency and efficacy of protein synthesis
Experimental: Activity measurements in Table I were performed in a cell-based luciferase reporter assay (as described in Section 4.2) comprising a luciferase reporter construct containing a UGA premature termination codon that was stably transfected in 293T Human Embryonic Kidney cells. A small molecule (3-[3-(4-Isopropyl-phenyl)-2,5-dioxoimidazolidin-1-yl]-benzoic acid) known to allow readthrough of premature termination codons, was used as an internal standard. Activity measurements are based on the qualitative relation between the minimum concentration of compound required to produce a given protein in a cell (potency) and the maximum amount of protein produced by the cell (efficacy). Potency and efficacy activities are ranked as either extremely high, very high or significant.
The test compounds identified in the nonsense suppression assay (for convenience referred to herein as a “lead” compound) can be tested for biological activity using host cells containing or engineered to contain the target RNA element coupled to a functional readout system. For example, the lead compound can be tested in a host cell engineered to contain the RNA with the premature translation termination codon controlling the expression of a reporter gene. In this example, the lead compounds are assayed in the presence or absence of the RNA with the premature translation termination codon. Compounds that modulate premature translation termination and/or nonsense-mediated mRNA decay in vivo will result in increased expression of the full-length gene, i.e., past the premature termination codon. Alternatively, a phenotypic or physiological readout can be used to assess activity of the target RNA with the premature translation termination codon in the presence and absence of the lead compound. Both the in vitro and in vivo nonsense suppression assays used herein and as described in International Patent Publication WO 01/44516, which is incorporated by reference in its entirety, can be used to identify lead compounds can also be used to determine an EC50 for the lead compounds.
A stable cell line harboring the […] nonsense-containing luciferase gene is treated with a test compound. Cells are grown in standard medium supplemented with 1% penicillin-streptomycin (P/S) and 10% fetal bovine serum (FBS) to 70% confluency and split 1:1 the day before treatment. The next day, cells are trypsinized and 40,000 cells are added to each well of a 96-well tissue culture dish. Serial dilutions of each compound are prepared to generate a six-point dose response curve spanning 2 logs ([…]). The final concentration of the DMSO solvent remains constant at 1% in each well. Cells treated with 1% DMSO serve as the background standard, and cells treated with gentamicin serve as a positive control.
For `Cc1ccc(N2CC(=O)N(c3cccc(C(=O)O)c3)C2=O)cc1` [Compound 26, 3-(2,5-Dioxo-3-p-tolylimidazolidin-1-yl)-benzoic acid], the Activity was “*”. For `O=C(O)c1cccc(N2CCN(c3ccc4c(c3)OC(F)(F)O4)C2=O)c1` [Compound 50, 3-[3-(2,2-Difluoro-benzo[1,3]dioxol-5-yl)-2-oxo-imidazolidin-1-yl]-benzoic acid], the Activity was “****”. For `O=C(NCc1ccc(Cl)cc1Cl)Nc1cccc(C(=O)O)c1` [Compound 21, 3-[3-(2,4-dichloro-benzyl)-ureido]-benzoic acid], the Activity was “*”. `Cc1ccc(N2CCN(c3cccc(C(=O)O)c3)C2=O)cc1` [Compound 48, 3-(2-Oxo-3-p-tolyl-imidazolidin-1-yl)-benzoic acid] was tested, and the Activity was “*****”. In the case of `O=C(O)c1cc(N2CCN(c3ccc(C(F)(F)F)cc3)C2=O)ccc1F` [Compound 53, 2-Fluoro-5-[2-oxo-3-(4-trifluoromethyl-phenyl)-imidazolidin-1-yl]-benzoic acid], the Activity is reported as “****”. In the case of `CC(C)c1ccc(N2CCN(c3cccc(C(=O)O)c3)C2=S)cc1` [Compound 60, 3-[3-(4-Isopropyl-phenyl)-2-thioxo-imidazolidin-1-yl]-benzoic acid], the Activity is reported as “****”. In the case of `CC(C)(C)c1ccc(N2CC(=O)N(c3cccc(C(=O)O)c3)C2=O)cc1` [Compound 28, 3-[3-(4-tert-Butylphenyl)-2,5-dioxoimidazolidin-1-yl]-benzoic acid], the Activity is reported as “**”. With `O=C(O)c1cccc(N2CCN(c3ccc(C(F)(F)F)cc3)C2=O)c1F` [Compound 58, 2-Fluoro-3-[2-oxo-3-(4-trifluoromethyl-phenyl)-imidazolidin-1-yl]-benzoic acid] the Activity was “**”. `O=C(O)c1cccc(N2CCN(c3ccc(I)cc3)C2=O)c1` [Compound 43, 3-[3-(4-Iodo-phenyl)-2-oxo-imidazolidin-1-yl]-benzoic acid] was tested, and the Activity was “*****”. For `O=C(O)c1cccc(N2CCN(c3ccc(OCC(=O)N4CCN(c5ccccc5)CC4)cc3)C2=O)c1` [Compound 61, 3-(2-Oxo-3-{4-[2-oxo-2-(phenyl-piperazin-1-yl)-ethoxy]-phenyl}-imidazolidin-1-yl)-benzoic acid], the Activity was “*”. For `O=C(O)c1cccc(N2C(=O)CN(c3ccc(Oc4ccccc4)cc3)C2=O)c1` [Compound 3, 3-[2,5-dioxo-3-(4-phenoxy-phenyl)-imidazolidin-1-yl]-benzoic acid], the Activity was “**”. With `O=C(NCc1ccc(Br)cc1)Nc1cccc(C(=O)O)c1` [Compound 20, 3-[3-(4-bromo-benzyl)-ureido]-benzoic acid] the Activity was “*”. For `COc1ccc(N2CCN(c3cccc(C(=O)O)c3)C2=O)cc1` [Compound 49, 3-[3-(4-Methoxy-phenyl)-2-oxo-imidazolidin-1-yl]-benzoic acid], the Activity was “****”. For `O=C(O)c1cccc(N2CCN(c3ccc(C(F)(F)F)cc3)C2=O)c1` [Compound 45, 3-[2-Oxo-3-(4-trifluoromethyl-phenyl)-imidazolidin-1-yl]-benzoic acid], the Activity was “*****”. With `O=C(O)c1cccc(N2CC(=O)N(c3ccc(Oc4ccccc4)cc3)C2=O)c1` [Compound 12, 3-[2,4-dioxo-3-(4-phenoxy-phenyl)-imidazolidin-1-yl]-benzoic acid] the Activity was “*”. With `CC(C)c1ccc(N2CCCN(c3cccc(C(=O)O)c3)S2(=O)=O)cc1` [Compound 7, 3-[6-(4-isopropyl-phenyl)-1,1-dioxo-1l6-[1,2,6]-thiadiazinan-2-yl]-benzoic acid] the Activity was “*”. `CC(C)c1ccc(N2CC(=O)N(c3cccc(C(=O)O)c3)C2=O)cc1` [Compound 1, 3-[3-(4-isopropyl-phenyl)-2,5-dioxo-imidazolidin-1-yl]-benzoic acid] was tested, and the Activity was “***”. For `CN(C)c1ccc(N2CCN(c3cccc(C(=O)O)c3)C2=O)cc1` [Compound 47, 3-[3-(4-Dimethylamino-phenyl)-2-oxo-imidazolidin-1-yl]-benzoic acid], the Activity was “*****”. In the case of `O=C(O)c1cccc(N2CCN(c3ccc(-n4cccc4)cc3)C2=O)c1` [Compound 46, 3-[2-Oxo-3-(4-pyrrol-1-yl-phenyl)-imidazolidin-1-yl]-benzoic acid], the Activity is reported as “*****”. For `O=C(O)c1cccc(N2CCN(c3ccc(OC(F)(F)F)cc3)C2=O)c1` [Compound 38, 3-[2-Oxo-3-(4-trifluoro-methoxy-phenyl)-imidazolidin-1-yl]-benzoic acid], the Activity was “*****”. For `O=C(O)c1cccc(N2CCN(c3ccc4c(c3)OCO4)C2=O)c1` [Compound 41, 3-(3-Benzo[1,3]dioxol-5-yl-2-oxo-imidazolidin-1-yl)-benzoic acid], the Activity was “*****”. For `Cc1ccc(N2CCN(c3cccc(C(=O)O)c3)C2=O)cc1F` [Compound 71, 3-[3-(3-Fluoro-4-methyl-phenyl)-2-oxo-imidazolidin-1-yl]-benzoic acid], the Activity was “*****”. `COc1ccc(C(=O)O)cc1N1CCN(c2ccc(C(F)(F)F)cc2)C1=O` [Compound 52, 4-Methoxy-3-[2-oxo-3-(4-trifluoromethyl-phenyl)-imidazolidin-1-yl]-benzoic acid] was tested, and the Activity was “*”. With `CC(C)c1ccc(N2CCN(c3cccc(C(=O)O)c3)C2=O)cc1` [Compound 34, 3-[3-(4-Isopropyl-phenyl)-2-oxo-imidazolidin-1-yl]-benzoic acid] the Activity was “*****”. `CN1CCN(c2ccc(N3CCN(c4cccc(C(=O)O)c4)C3=O)cc2)CC1` [Compound 76, 3-{3-[4-(4-Methyl-piperazin-1-yl)-phenyl]-2-oxo-imidazolidin-1-yl}-benzoic acid] was tested, and the Activity was “*”. `O=C(O)c1ccc(F)c(N2CCN(c3ccc(C(F)(F)F)cc3)C2=O)c1` [Compound 55, 4-Fluoro-3-[2-oxo-3-(4-trifluoromethyl-phenyl)-imidazolidin-1-yl]-benzoic acid] was tested, and the Activity was “*”. For `O=C(Nc1ccc(Br)cc1)Nc1cccc(C(=O)O)c1` [Compound 22, 3-[3-(4-bromo-phenyl)-ureido]-benzoic acid], the Activity was “*”. In the case of `O=C(O)c1cccc(N2CCN(c3ccc(N4CCCC4)cc3)C2=O)c1` [Compound 44, 3-[2-Oxo-3-(4-pyrrolidin-1-yl-phenyl)-imidazolidin-1-yl]-benzoic acid], the Activity is reported as “****”. In the case of `O=C(O)c1cccc(N2CCN(c3ccc(OC(F)F)cc3)C2=O)c1` [Compound 39, 3-[3-(4-Difluoromethoxy-phenyl)-2-oxo-imidazolidin-1-yl]-benzoic acid], the Activity is reported as “*****”. In the case of `CC(C)c1ccc(N2CCN(c3cccc(C(=O)O)c3)S2(=O)=O)cc1` [Compound 15, 3-[5-(4-isopropyl-phenyl)-1,1-dioxo-1l6-[1,2,5]-thiadiazolidin-2-yl]-benzoic acid], the Activity is reported as “**”. `COc1ccccc1CN1CC(=O)N(c2cccc(C(=O)O)c2)C1=O` [Compound 14, 3-[3-(2-methoxy-benzyl)-2,5-dioxo-imidazolidin-1-yl]-benzoic acid] was tested, and the Activity was “*”. In the case of `COC(=O)c1ccc(N2CC(=O)N(c3cccc(C(=O)O)c3)C2=O)cc1` [Compound 25, 3-[3-(4-methoxycarbonylphenyl)-2,5-dioxoimidazolidin-1-yl]-benzoic acid], the Activity is reported as “*”. In the case of `O=C(O)c1cc(N2CCN(c3ccc(C(F)(F)F)cc3)C2=O)ccc1Cl` [Compound 54, 2-Chloro-5-[2-oxo-3-(4-trifluoromethyl-phenyl)-imidazolidin-1-yl]-benzoic acid], the Activity is reported as “****”. With `CCOC(=O)c1ccc(N2C(=O)CN(c3cccc(C(=O)O)c3)C2=O)cc1` [Compound 17, 3-[3-(4-formyl-ethylester-phenyl)-2,4-dioxo-imidazolidin-1-yl]-benzoic acid] the Activity was “*”. In the case of `O=C(O)c1cccc(N2C(=O)CN(c3ccc(-c4ccccc4)cc3)C2=O)c1` [Compound 2], the Activity is reported as “***”. `O=C(O)c1cccc(N2C(=O)CN(Cc3ccccc3Cl)C2=O)c1` [Compound 5, 3-[3-(2-chloro-benzyl)-2,5-dioxo-imidazolidin-1-yl]-benzoic acid] was tested, and the Activity was “***”. In the case of `CC(C)c1ccc(N(CC(=O)[O-])C(=O)Nc2cccc(C(=O)[O-])c2)cc1.[Na+].[Na+]` [Compound 4, 3-[3-carboxymethyl-3-(4-isopropyl-phenyl)-ureido]-benzoic acid disodium salt], the Activity is reported as “***”. In the case of `O=C(O)c1cccc(N2CCN(c3ccc(N4CCC(N5CCCCC5)CC4)cc3)C2=O)c1` [Compound 81, 3-[3-(4-[1,4′]Bipiperidinyl-1′-yl-phenyl)-2-oxo-imidazolidin-1-yl]-benzoic acid], the Activity is reported as “*”.
